Residues, ends and D or L forms follow the SMILES beside them.

For the data set, the system named is Trypsin. Nature of the data set: Proteolytic degradation. Type of data set: in vitro ADME. As to conditions: peptide 100 µM, trypsin 0.125 mg/ml (~5 µM), ammonium bicarbonate buffer 50 mM pH 8.5, 16 h, 37 °C, MALDI-ToF MS. An excerpt:
Samples were resuspended in MQ-water containing 0.1% TFA, desalted using ZipTip-C18 columns (Millipore) and analyzed using MALDI-ToF with α-cyano-4-hydroxycinnamic acid as matrix.

`CC(C)C[C@H](NC(=O)[C@H](Cc1ccc(O)cc1)NC(=O)[C@H](Cc1ccc(O)cc1)NC(=O)CNC(=O)[C@H](Cc1c[nH]c2ccccc12)NC(=O)[C@H](CO)NC(=O)[C@H](CO)NC(=O)[C@H](Cc1c[nH]c2ccccc12)NC(=O)[C@H](CC(C)C)NC(=O)[C@H](CCCCN)NC(=O)[C@@H](NC(=O)[C@@H](NC(=O)[C@H](CC(C)C)NC(=O)[C@@H](N)CC(=O)O)[C@@H](C)O)[C@@H](C)O)C(=O)NCC(=O)N[C@@H](CCCCN)C(=O)N[C@@H](CCCCN)C(=O)N[C@@H](C)C(=O)N[C@@H](CCCNC(=N)N)C(=O)N[C@@H](Cc1c[nH]c2ccccc12)C(=O)N[C@@H](CC(N)=O)C(=O)N[C@@H](CC(C)C)C(=O)N[C@@H](CCCCN)C(=O)N[C@@H](Cc1c[nH]cn1)C(=O)N1CCC[C@H]1C(=O)N[C@@H](Cc1ccc(O)cc1)C(=O)N[C@H](C(=O)N[C@@H](CCC(N)=O)C(=O)N[C@@H](Cc1ccccc1)C(=O)O)C(C)C` [L-PLNC8 α] (H-DLTTKLWSSWGYYLGKKARWNLKHPYVQF-OH): the degradation by trypsin result is given as “efficiently degraded by trypsin”. Under `CC[C@H](C)[C@H](NC(=O)CNC(=O)[C@H](CC(C)C)NC(=O)[C@@H](NC(=O)[C@H](Cc1ccc(O)cc1)NC(=O)[C@@H](NC(=O)[C@H](CO)NC(=O)[C@@H](NC(=O)[C@@H]1CCCN1C(=O)[C@@H](NC(=O)[C@@H](N)CO)C(C)C)[C@@H](C)O)C(C)C)[C@@H](C)O)C(=O)N[C@@H](CCCCN)C(=O)N[C@H](C(=O)N[C@@H](CC(C)C)C(=O)N[C@@H](Cc1c[nH]c2ccccc12)C(=O)N[C@@H](CO)C(=O)N[C@@H](C)C(=O)N[C@@H](Cc1ccc(O)cc1)C(=O)N[C@@H](CCCCN)C(=O)N[C@@H](Cc1c[nH]cn1)C(=O)N[C@@H](CCCNC(=N)N)C(=O)N[C@@H](CCCCN)C(=O)N[C@H](C(=O)N[C@H](C(=O)N[C@@H](CCC(=O)O)C(=O)N[C@@H](CCCCN)C(=O)N[C@@H](CO)C(=O)N[C@@H](Cc1ccccc1)C(=O)N[C@@H](CC(N)=O)C(=O)N[C@@H](CCCCN)C(=O)NCC(=O)N[C@@H](Cc1ccccc1)C(=O)N[C@@H](Cc1ccc(O)cc1)C(=O)N[C@@H](Cc1c[nH]cn1)C(=O)O)[C@@H](C)CC)[C@@H](C)O)[C@@H](C)CC` [L-PLNC8 β] (H-SVPTSVYTLGIKILWSAYKHRKTIEKSFNKGFYH-OH) stands “efficiently degraded by trypsin”.
